# Activity calls are given as the source filed them.
# Assays:
# cells = format: functional
# [1] = target: Beta-2 adrenergic receptor (Homo sapiens, UniProt P07550); experiment: beta2AR agonists driving receptor internalization, dose response, cell-based, FAP fluorogen, flow cytometry, cherry pick 1 (AID 588763); format: functional
# HeLa = experiment: HeLa cell cytotoxicity, dose response, cytotoxicity control for MITF activator project, CellTiter-Glo luminescence, cherry-pick samples (AID 540259); format: functional, cell-based; settings: Homo sapiens
# [2] = inhibitors of firefly luciferase expression or activity, dose response, H4 neuroglioma cells, luminescence (AID 1990); format: functional, cell-based
# [3] = test system: Streptococcus sp. 'group A'; experiment: growth inhibition of control SK(-) GAS strain, dose response, counter-screen for streptokinase expression inhibitor project, luminescence, kanamycin, BacTiterGlo, confirmation (AID 1900); format: functional, organism-based
# [4] = Luminescence Cell-Based Dose Response HTS to Identify Inhibitors of 5'UTR Stem-Loop Driven Prion Protein mRNA Translation in H4 Neuroglioblastoma Cells. [Related pubchem assays: 1827 (Project Summary), 1813 (Primary HTS)]; format: functional
# [5] = inhibitors of SNCA 5'UTR-driven reporter translation, confirmation, H4 neuroglioma cells, luminescence (AID 1988); format: functional, cell-based
# Streptokinase A = target: T1, Streptokinase A (Streptococcus pyogenes serotype M1, UniProt P10520); experiment: S. pyogenes streptokinase expression inhibitors, potency, dose response, plasminogen activation absorbance, OD405 (AID 1914); format: functional, Streptococcus pyogenes M1 GAS;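 also: secreted streptokinase activity via plasminogen activation per viability signal from cell pellet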
# T1 sequence (P10520 whole entry): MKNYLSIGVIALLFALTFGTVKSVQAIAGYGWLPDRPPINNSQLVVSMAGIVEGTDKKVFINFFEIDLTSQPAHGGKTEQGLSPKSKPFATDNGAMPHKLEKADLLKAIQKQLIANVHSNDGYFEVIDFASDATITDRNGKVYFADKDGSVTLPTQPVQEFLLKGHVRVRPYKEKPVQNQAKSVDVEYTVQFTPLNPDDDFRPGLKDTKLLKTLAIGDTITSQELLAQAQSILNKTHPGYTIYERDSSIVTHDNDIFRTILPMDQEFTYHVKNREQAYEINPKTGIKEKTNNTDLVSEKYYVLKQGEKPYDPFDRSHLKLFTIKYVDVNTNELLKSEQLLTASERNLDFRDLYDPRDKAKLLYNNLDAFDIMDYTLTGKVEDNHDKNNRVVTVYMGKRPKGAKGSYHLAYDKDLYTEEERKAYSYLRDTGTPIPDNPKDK
# [6] = inhibitors of intracellular T. cruzi replication, confirmation, NIH3T3 host cells, beta-gal luminescence (AID 2044); format: functional, cell-based;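 also: intracellular parasites grown in NIH/3T3 mouse fibroblasts as host cells; luminescent beta-galactosidase reporter signal from transgenic T. cruzi replicating inside host cells; inhibitors lower the luminescence signal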
# [7] = growth suppression of PTEN-null colon cells, dose response, cell-based, HCT116 PTEN knockout (AID 1047); format: functional;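 also: HCT116 colon tumor cells with PTEN knocked out; cells exposed to compound for 60 hours before readout; potency for loss of cell viability measured by luminescence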
# [8] = cytotoxicity toward NIH3T3 fibroblasts, dose response, counter-screen, cell-based, ATP luminescence, mouse fibroblasts (AID 2010); format: functional;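 also: cells exposed to compound for about 90 hours before reading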
# [9] = growth suppression of beta-catenin-knockout colon cells, dose response, cell-based, HCT116, human colon tumor (AID 1045); format: functional;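 also: HCT116 colon tumor cells with beta catenin knocked out; cells exposed to compound for 60 hours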
# Streptococcus = experiment: Group A Streptococcus viability loss, dose response, counter-screen for streptokinase expression inhibitor project, luminescence, BacTiterGlo (AID 1915); format: functional, organism-based;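 also: potency for reduction of bacterial viability or growth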
# HEK293 [10] = experiment: inhibitors of LMP1-driven NF-kB reporter, dose response, cell-based, HEK293, luciferase, cherry-pick (AID 588343); format: functional; settings: Homo sapiens
# Insulin-degrading enzyme [11] = target: T2, Insulin-degrading enzyme (Homo sapiens, UniProt P14735); experiment: activators of recombinant IDE enzyme, dose response, counter-screen for IDE activator project, biochemical, fluorescence polarization (AID 588681)
# T2 sequence (P14735 whole entry): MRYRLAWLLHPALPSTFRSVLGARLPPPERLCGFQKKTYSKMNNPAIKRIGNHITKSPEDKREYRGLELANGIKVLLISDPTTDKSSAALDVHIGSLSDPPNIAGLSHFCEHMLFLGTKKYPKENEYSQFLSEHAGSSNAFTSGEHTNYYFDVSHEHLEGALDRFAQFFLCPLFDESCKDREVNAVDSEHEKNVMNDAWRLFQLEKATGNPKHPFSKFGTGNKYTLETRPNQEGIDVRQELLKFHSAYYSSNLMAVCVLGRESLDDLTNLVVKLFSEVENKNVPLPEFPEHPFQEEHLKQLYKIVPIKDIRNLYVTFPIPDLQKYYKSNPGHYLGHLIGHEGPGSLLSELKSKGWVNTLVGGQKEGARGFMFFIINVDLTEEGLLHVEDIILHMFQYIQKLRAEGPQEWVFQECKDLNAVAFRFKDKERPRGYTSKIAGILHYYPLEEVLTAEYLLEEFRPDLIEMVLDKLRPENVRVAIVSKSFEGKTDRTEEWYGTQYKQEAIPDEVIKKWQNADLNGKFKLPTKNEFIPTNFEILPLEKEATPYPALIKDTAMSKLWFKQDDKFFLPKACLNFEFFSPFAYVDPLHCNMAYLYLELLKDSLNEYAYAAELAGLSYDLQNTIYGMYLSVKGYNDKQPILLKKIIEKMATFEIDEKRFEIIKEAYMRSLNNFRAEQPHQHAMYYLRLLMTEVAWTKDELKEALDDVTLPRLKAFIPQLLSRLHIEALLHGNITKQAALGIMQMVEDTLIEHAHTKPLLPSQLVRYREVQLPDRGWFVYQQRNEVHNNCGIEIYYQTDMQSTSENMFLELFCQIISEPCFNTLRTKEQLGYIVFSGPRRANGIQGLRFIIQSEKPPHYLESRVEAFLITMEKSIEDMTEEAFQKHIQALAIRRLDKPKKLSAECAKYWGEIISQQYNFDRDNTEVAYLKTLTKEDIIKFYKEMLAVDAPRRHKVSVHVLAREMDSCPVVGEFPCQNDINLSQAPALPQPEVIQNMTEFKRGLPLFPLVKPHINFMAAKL
# Insulin-degrading enzyme [12] = target: T2, Insulin-degrading enzyme; experiment: activators of endogenous IDE in HEK cells, dose response, cell-based, fluorescence polarization (AID 588439); format: functional
# INS1 = experiment: beta cell apoptosis inhibitors, cytokine rescue, dose response, luminescence, retest (AID 449756); format: functional, cell-based; settings: Rattus norvegicus;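 also: cell death triggered by IL-1 beta plus TNF-alpha plus IFN-gamma mixture; protective hits raise ATP signal compared with cytokine alone wells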
# HEK293 [13] = experiment: HEK cell cytotoxicity by LDH release, dose response, cytotoxicity control for IDE activator project, fluorescence, HEK cells (AID 588440); format: functional, cell-based; settings: Homo sapiens;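 also: cytotoxicity by LDH release measuring loss of membrane integrity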
# HEK293 [14] = experiment: optical interference in Abeta FP readout, dose response, artefact control for IDE activator project, biochemical, fluorescence polarization (AID 588442); format: functional, cell-based; settings: Homo sapiens
# [15] = Shn3 3'UTR reporter inhibitors, dose response, cell-based, Clone20 osteoblasts, firefly luciferase, cherry-picked (AID 624132); format: functional;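 also: firefly luciferase luminescence from reporter carrying the Shn3 3'UTR in osteoblasts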
# [16] = HepG2 cell cytotoxicity, dose response, cytotoxicity control for Shn3 inhibitor project, CellTiter-Glo, cherry-picked (AID 624134); format: functional, cell-based
# [17] = control 3'UTR Renilla luciferase suppression, dose response, counter-screen for Shn3 inhibitor project, cell-based, Clone20-Shn3RL, cherry-picked (AID 624133); format: functional
# [18] = Luminescence Cell-Based Dose Retest to Confirm Inhibitors of Cancer Stem Cells. [Related pubchem assays (depositor defined):AID2717, AID2721]; format: functional; settings: Homo sapiens
# [19] = target: T3, 1-acylglycerol-3-phosphate O-acyltransferase ABHD5/Perilipin-5 (Homo sapiens, UniProt Q00G26+Q8WTS1); experiment: Luminescence-based biochemical high throughput dose response assay for inhibitors of the interaction of the lipase co-activator protein, abhydrolase domain containing 5 (ABHD5) with perilipin-5 (MLDP; PLIN5) (2K validation set). [Related pubchem assays (depositor defined):AID493035, AID493241]
# T3 sequence (Q00G26 whole entry): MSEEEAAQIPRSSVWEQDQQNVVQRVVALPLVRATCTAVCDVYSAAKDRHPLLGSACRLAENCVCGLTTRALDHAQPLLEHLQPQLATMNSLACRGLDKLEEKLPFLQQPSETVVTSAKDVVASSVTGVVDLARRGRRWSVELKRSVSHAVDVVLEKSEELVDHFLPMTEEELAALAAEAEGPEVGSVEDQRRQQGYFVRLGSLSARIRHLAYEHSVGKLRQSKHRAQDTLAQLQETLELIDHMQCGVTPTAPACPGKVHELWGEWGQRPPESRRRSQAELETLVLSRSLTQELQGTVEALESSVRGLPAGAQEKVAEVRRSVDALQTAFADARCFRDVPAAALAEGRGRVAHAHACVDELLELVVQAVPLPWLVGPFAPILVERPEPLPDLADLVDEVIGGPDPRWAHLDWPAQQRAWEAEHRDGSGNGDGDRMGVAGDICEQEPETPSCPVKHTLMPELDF
# T3 sequence (Q8WTS1 whole entry): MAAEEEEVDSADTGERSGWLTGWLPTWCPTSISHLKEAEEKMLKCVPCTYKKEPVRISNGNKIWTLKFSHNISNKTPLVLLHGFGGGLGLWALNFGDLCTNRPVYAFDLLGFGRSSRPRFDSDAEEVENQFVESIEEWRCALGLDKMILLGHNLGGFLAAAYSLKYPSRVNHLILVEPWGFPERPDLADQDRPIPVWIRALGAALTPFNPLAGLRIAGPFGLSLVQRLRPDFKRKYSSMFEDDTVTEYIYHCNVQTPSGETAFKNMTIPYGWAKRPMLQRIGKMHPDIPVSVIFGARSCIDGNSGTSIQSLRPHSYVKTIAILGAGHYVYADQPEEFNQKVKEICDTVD
# Perilipin-1/ABHD5 = target: T4, Perilipin-1/ABHD5 (Homo sapiens, UniProt O60240+Q8WTS1); experiment: Luminescence-based biochemical high throughput dose response assay for inhibitors of the interaction of the lipase co-activator protein, abhydrolase domain containing 5 (ABHD5) with perilipin-1 (PLIN1) (2K validation set). [Related pubchem assays (depositor defined):AID493027, AID493057]
# T4 sequence (Q8WTS1 whole entry): T3 sequence (Q8WTS1 whole entry)
# T4 sequence (O60240 whole entry): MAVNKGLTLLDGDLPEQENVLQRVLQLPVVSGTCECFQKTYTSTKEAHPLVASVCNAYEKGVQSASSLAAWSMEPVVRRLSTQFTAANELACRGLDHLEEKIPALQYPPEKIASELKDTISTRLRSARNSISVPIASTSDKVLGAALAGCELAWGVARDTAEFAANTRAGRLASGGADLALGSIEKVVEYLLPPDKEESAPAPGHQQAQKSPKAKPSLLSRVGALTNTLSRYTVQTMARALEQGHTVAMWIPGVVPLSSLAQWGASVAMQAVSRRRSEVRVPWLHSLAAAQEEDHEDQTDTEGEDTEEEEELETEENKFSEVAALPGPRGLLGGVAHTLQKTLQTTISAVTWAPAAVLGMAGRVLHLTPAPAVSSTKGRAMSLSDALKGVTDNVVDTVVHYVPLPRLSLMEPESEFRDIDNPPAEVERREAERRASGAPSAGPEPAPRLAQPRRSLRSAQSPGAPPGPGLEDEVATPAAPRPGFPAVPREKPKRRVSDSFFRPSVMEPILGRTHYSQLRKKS
# Vero [20] = experiment: cells; format: functional, cell-based; settings: Chlorocebus sabaeus
# Vero [21] = experiment: cells; format: functional; settings: Chlorocebus sabaeus
# Protein skinhead-1 = target: T5, Protein skinhead-1 (Caenorhabditis elegans, UniProt P34707); format: functional
# T5 sequence (P34707 whole entry): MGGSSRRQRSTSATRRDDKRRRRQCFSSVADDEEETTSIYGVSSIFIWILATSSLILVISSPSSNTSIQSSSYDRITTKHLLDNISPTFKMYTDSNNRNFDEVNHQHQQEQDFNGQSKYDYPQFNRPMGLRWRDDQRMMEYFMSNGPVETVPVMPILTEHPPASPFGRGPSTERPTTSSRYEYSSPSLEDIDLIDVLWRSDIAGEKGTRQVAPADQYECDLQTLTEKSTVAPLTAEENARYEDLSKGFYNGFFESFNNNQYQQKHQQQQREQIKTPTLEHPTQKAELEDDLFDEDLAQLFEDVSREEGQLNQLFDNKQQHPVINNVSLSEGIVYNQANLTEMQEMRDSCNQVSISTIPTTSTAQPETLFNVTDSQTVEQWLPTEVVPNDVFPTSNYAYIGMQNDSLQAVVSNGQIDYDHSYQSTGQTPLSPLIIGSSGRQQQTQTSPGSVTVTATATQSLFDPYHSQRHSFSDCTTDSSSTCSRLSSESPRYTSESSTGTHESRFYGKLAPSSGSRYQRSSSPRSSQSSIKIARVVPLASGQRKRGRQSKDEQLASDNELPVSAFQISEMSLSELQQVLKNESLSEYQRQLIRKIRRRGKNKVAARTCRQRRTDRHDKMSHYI
# HEK293 [22] = experiment: cytotoxicity in HEK293T NF-kB-Luc cells, SAR follow-up, cytotoxicity control for NF-kB activator project, cell-based, resazurin fluorescence (AID 493251); format: functional; settings: Homo sapiens
# Chain of Beta-2 adrenergic receptor (P07550 whole entry): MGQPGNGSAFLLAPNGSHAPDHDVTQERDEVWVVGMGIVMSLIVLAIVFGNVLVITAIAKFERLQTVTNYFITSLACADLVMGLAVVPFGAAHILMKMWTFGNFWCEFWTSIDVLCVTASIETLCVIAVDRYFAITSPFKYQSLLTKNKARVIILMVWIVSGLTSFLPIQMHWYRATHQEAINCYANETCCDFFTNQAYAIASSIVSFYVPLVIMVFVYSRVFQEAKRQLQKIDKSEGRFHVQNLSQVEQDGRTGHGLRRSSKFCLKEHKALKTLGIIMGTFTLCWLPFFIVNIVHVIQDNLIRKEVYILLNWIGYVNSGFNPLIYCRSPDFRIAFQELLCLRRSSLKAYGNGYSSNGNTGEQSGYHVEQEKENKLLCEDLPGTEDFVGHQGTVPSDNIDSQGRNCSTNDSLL
compound,measurement,setting,value
COc1cccc(OCc2nnc(-c3cccs3)o2)c1,IC50,cells,5.57 µM (active)
same,EC50,[1],10.7 µM (inactive)
O=C(NCCC1=CCCCC1)c1ccc(-n2cncn2)cc1,AC50,HeLa,> 350 µM (inactive)
COc1ccc(Cn2c(SCc3cc(C)ccc3C)nc3cc(OC)c(OC)cc3c2=N)cc1,EC50,[2],24.1 µM (active)
same,EC50,[3],5.16 µM (active)
same,EC50,[4],30.7 µM (active)
same,EC50,[5],10.8 µM (active)
same,EC50,Streptokinase A,6.67 µM (active)
same,EC50,[6],1.19 µM (active)
same,EC50,[7],2.47 µM (active)
same,EC50,[8],9.83 µM (active)
same,EC50,[9],1.88 µM (active)
same,EC50,Streptococcus,8.37 µM (active)
same,AC50,HEK293 [10],7.9 µM (active)
same,EC50,Insulin-degrading enzyme [11],> 54.7 µM (inactive)
same,EC50,Insulin-degrading enzyme [12],6.95 µM (active)
same,AC50,INS1,3.48 µM (active)
same,IC50,HEK293 [13],10.7 µM (inactive)
same,EC50,HEK293 [14],> 56 µM (inactive)
same,EC50,[1],83.4 µM (inactive)
same,AC50,[15],7.91 µM (active)
same,AC50,[16],11.2 µM (active)
same,AC50,[17],9.31 µM (active)
O=C(/C=C/c1ccccc1)/C=C/c1ccccc1,EC50,[7],1.22 µM (active)
same,EC50,[9],0.953 µM (active)
same,AC50,[18],1.42 µM (active)
same,IC50,[19],1.48 µM (active)
same,IC50,Perilipin-1/ABHD5,1.52 µM (active)
same,IC50,Vero [20],> 25 µM (active)
same,CC50,Vero [21],19.1 µM (active)
same,IC50,Protein skinhead-1,11.6 µM (active)
Cc1cc(C)c2c(N)c(-c3nnc(SCc4ccc(Cl)cc4)n3C)sc2n1,EC50,[1],0.252 µM (active)
Cc1ccc(Nc2ncnc3ccccc23)cc1,AC50,HeLa,154 µM (active)
COC(=O)CCc1nc(-c2ccc(C(C)(C)C)cc2)no1,IC50,HEK293 [22],> 80 µM (inactive)
Cn1cccc1C(=O)C(=O)Nc1ccc(F)c(F)c1,AC50,HeLa,72.6 µM (active)

# Source: ChEMBL document CHEMBL1201862, “PubChem BioAssay data set” (2004)
